Assay results: US10301267B2, “Compounds” (AstraZeneca AB, priority 2006, dated 2019)
Where two headings read alike, the source gives them in different places.

How the values were obtained:
FGFR1 active kinase [1] = biological target: T1, FGFR1 active kinase (Homo sapiens, UniProt P11362); test: FGFR Kinase assay - Caliper; format: biochemical; as to FGFR Kinase assay - Caliper, IC50: 408 µM ATP
[2] = tested on: bFGF stimulated Erk phosphorylation in NIH 3T3 cells; test: Cell pErk - growth factor stimulated Erk phosphorylation; format: cell-based; conditions: Mus musculus
From the text: Cell Assays Cell pErk—Growth Factor Stimulated Erk Phosphorylation
These and other assays were used to evaluate the ability of a test compound to inhibit growth factor stimulated cellular signalling in mammalian cell lines. This was achieved by measuring the amount of receptor tyrosine kinase regulated Erk phosphorylation within a cell following compound treatment.
NIH 3T3 (ECACC, 93061524) cells were routinely passaged in DMEM (Gibco BRL, 41966) plus 10% foetal calf serum (FCS), 1% L-glutamine (Gibco BRL, 25030) to a confluence not greater than 80%. To undertake the assay, NIH 3T3's were seeded at 1×10^4 cells/well in DMEM plus 10% foetal calf serum, 1% L-glutamine in 96 well plates (Costar, 3904) and incubated at 37° C. (+5% CO2) in a humidified incubator. Once the cells had fully adhered (typically following 4-5 hours incubation) the media was removed from each well and the cells gently washed with 100 μl warm serum free media. 90 μl of serum free DMEM plus 1% L-glutamine was then added to each well and the plates were returned to a humidified 37° C. (+5% CO2) incubator. The following day, the plates were dosed with 10 μl compound (diluted from 10 mM stock in DMSO using serum free DMEM) and the plates were returned to a humidified 37° C. (+5% CO2) incubator for one hour. NIH 3T3 cells were then stimulated with a final concentration of 3 ng/ml bFGF (Sigma, F0291) for 20 minutes at 37° C. Following stimulation the cells were fixed by adding formaldehyde (4% v/v final concentration) and incubating at room temperature for 20 minutes. The fixative solution was then removed and the wells were washed twice with 100 μl phosphate buffered saline (PBS/A) before permeabilising the cells by the addition of 50 μl/well 0.1% triton/PBS/A for 10 minutes at room temperature. The permeabilisation solution was then removed and the cells washed twice more with 100 μl/well PBS/A before the addition of 50 μl/well anti-phospho p44/42 antibody (Cell Signalling Technology, 9106), diluted 1/500 with PBS/A plus 10% FCS. The anti-phospho p44/42 antibody recognises Erk phosphorylated at threonine 202 and tyrosine 204. Following incubation at room temperature for 2 hours, the antibody solution was removed and the wells were washed twice with 100 μl/well PBS/A. 50 μl/well 1/250 goat anti-mouse alexa fluor 488 secondary antibody (Molecular Probes, A11001) and 1/10000 Hoescht (Molecular Probes, H-3570) diluted with PBS/A plus 10% FCS was added and the plate incubated in the dark at room temperature for one hour. Finally, the plates were washed three times with 100 μl/well PBS/A, leaving the final wash in the wells before sealing the plates. The plates were read at 350 nm and 488 nm using an Arrayscan (Cellomics). […] IC50 value is the concentration of test compound that inhibits 50% of Erk phosphorylation.

[3] = biological target: T2, His6-tagged FGFR kinase domain (Homo sapiens, UniProt P11362, C488A/C584S); test: FGFR Kinase assay - Elisa; format: biochemical
T2 construct: FGFR kinase domain (amino acids 458-765, C488A, C584S) N-terminally fused to a His6-tag and TEV cleavage site; His6-tag plus linker and TEV cleavage site (printed as X1); made in house
Procedure: To determine inhibition of FGFR activity, kinase assays were conducted using ELISA (Enzyme-Linked Immunosorbent Assay) technology.
Kinase activity assays were performed in 384-well polypropylene plates (Matrix, Catalogue No. 4311. Matrix are part of Thermo Fisher Scientific, 22 Friars Drive, Hudson, N.H. 03051, USA) with a total volume of 40 μl in each well. Each well was coated with 2 μg of polyEAY substrate (Sigma, Catalogue No. P3899) at 4° C. overnight. The plates were then washed once with 100 μl PBS and once with 100 μl 50 mM HEPES (pH 7.4) prior to the addition of the kinase assay reagents. Reactions contained His6-tagged FGFR kinase domain (FGFR kinase domain (amino acids 458-765, C488A, C584S) N-terminally fused to a His6-tag and TEV cleavage site encoded by the following sequence; [[…]]. The final alanine denotes the start of the FGFR protein sequence. The resultant protein was expressed and purified based on Mohammadi et al, Cell Vol 86, 577-587 (1996). Each kinase reaction contained 0.1 ng His6-tagged FGFR kinase domain, 50 mM HEPES (pH 7.4), 0.1 mM Na3VO4, 0.1 mM DTT, 0.05% (v/v) Triton X100, 20 mM MgCl2, 160 μM ATP. Various concentrations of test compounds were each added in 5% (v/v) DMSO to yield a final assay DMSO concentration of 1.25% (v/v). The kinase reactions were incubated at room temperature for 45 minutes and stopped by washing the plate three times with 100 μl PBS plus 0.05% Tween. 40 μl of a one in 10000 dilution of 4G10-HRP antibody (Upstate Biotechnology, UBI 16-105. Upstate are part of Millipore Corporation, 290 Concord Road, Billerca Mass. 01821 USA) made up in 0.5% (w/v) BSA/PBS was then added to each well and the plates incubated at room temperature for one hour. Following this, the plates were then washed repeatedly with 100 μl PBS plus 0.05% Tween to remove all traces of the antibody solution. 40 μl of 50 μg/ml 3,3′,5,5′-Tetramethylbenzidine (Sigma, Catalogue No. T2885), 0.05M phosphate-citrate buffer, containing 0.03% sodium perborate was added to each well and the plates incubated at room temperature for twelve minutes. The colour reaction was stopped by the addition of 20 μl 2M H2SO4 and the plates read at 450 nm on a Spectrafluor Plus (Tecan Trading AG, Switzerland). In the assay, compounds were tested at a range of concentrations.
Percentage inhibition at 1 uM, as expressed herein, is a calculated value based on the curve fit that was generated experimentally. From the fitted curve plot, the effect of compound at a concentration of 1 uM was calculated as a percentage inhibition. The IC50 value is the concentration of test compound that inhibits 50% of FGFR kinase activity.

FGFR1 active kinase [4] = biological target: T1, FGFR1 active kinase; test: FGFR Kinase assay - Caliper Echo Dosing; format: biochemical; conditions: FGFR1 7.2 nM, 408 uM ATP, acoustic dosing; geometric mean of n
[5] = FGFR1 […], 408 uM ATP, mean of n as printed, read-out: FGFR Kinase assay - Caliper, IC50
[6] = NIH3T3, 3 ng/ml bFGF, read-out: Activity class (Cell pErk)
[7] = FGFR inhibition test, Caliper, read-out: Activity class (FGFR Kinase assay - Caliper)
[8] = FGFR inhibition test, Elisa, read-out: Activity class (FGFR Kinase assay - Elisa)
[9] = polyEAY substrate, 160 μM ATP, read-out: FGFR Kinase assay - Elisa, IC50

T1 sequence (P11362 22-822): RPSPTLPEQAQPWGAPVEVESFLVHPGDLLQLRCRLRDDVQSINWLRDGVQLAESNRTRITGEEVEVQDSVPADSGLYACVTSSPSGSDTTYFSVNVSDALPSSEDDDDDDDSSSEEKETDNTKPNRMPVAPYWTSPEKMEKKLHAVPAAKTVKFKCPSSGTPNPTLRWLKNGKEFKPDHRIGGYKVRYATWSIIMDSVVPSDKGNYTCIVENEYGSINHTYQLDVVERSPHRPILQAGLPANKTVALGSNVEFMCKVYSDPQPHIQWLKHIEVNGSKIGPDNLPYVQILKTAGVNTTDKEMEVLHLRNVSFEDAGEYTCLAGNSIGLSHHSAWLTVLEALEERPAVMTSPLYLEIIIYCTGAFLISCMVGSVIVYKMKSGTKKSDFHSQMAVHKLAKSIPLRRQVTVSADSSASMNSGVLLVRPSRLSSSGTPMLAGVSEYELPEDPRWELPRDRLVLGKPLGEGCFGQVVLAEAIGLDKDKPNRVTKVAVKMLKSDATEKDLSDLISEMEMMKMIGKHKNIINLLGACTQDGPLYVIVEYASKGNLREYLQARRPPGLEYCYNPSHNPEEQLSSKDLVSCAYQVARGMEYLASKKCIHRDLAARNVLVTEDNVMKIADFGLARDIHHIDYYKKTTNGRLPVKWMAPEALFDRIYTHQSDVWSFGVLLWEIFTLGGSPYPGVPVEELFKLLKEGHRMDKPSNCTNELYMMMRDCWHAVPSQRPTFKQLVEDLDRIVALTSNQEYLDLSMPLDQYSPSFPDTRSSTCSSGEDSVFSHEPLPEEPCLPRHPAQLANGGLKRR
T2 sequence (P11362 458-765 C488A/C584S): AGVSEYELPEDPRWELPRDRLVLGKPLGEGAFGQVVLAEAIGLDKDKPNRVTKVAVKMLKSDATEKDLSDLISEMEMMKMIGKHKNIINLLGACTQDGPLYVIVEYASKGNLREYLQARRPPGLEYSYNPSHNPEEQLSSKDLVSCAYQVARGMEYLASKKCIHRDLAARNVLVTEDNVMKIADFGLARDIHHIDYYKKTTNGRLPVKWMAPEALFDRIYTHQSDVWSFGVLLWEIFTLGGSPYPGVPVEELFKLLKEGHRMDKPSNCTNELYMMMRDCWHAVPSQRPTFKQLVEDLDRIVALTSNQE

## COc1cc(CCc2cc(NC(=O)c3ccccc3)[nH]n2)cc(OC)c1 [Example 2, N-[5-[2-(3,5-dimethoxyphenyl)ethyl]-2H-pyrazol-3-yl]benzamide]
FGFR1 active kinase [1]; [5]
  IC50: 0.14 µM
[2]; [6]
  IC50: < 0.3 µM

## CN1CCN(c2ccc(C(=O)Nc3cc(CCc4ccco4)n[nH]3)cc2)CC1 [Example 8, N-[5-[2-(2-furyl)ethyl]-2H-pyrazol-3-yl]-4-(4-methylpiperazin-1-yl)benzamide]
FGFR1 active kinase [1]; [7]
  IC50: < 0.3 µM
[3]; [8]
  IC50: < 0.3 µM
[3]; [9]
  IC50: 0.0795 µM
[2]; [6]
  IC50: < 0.3 µM

## COc1cc(CCc2cc(NC(=O)c3ccc(N4CCN(C)CC4)cc3)[nH]n2)cc(OC)c1 [Example 10, N-[5-[2-(3,5-dimethoxyphenyl)ethyl]-2H-pyrazol-3-yl]-4-(4-methylpiperazin-1-yl)benzamide]
FGFR1 active kinase [4]
  IC50: 0.00085 µM
[3]; [8]
  IC50: < 0.3 µM
[2]; [6]
  IC50: < 0.3 µM

## CN1CCN(c2ccc(C(=O)Nc3cc(CCc4cccnc4)n[nH]3)cc2)CC1 [Example 7, 4-(4-methylpiperazin-1-yl)-N-[5-(2-pyridin-3-ylethyl)-2H-pyrazol-3-yl]benzamide]
FGFR1 active kinase [1]; [5]
  IC50: 0.047 µM
FGFR1 active kinase [1]; [7]
  IC50: < 0.3 µM
[3]; [8]
  IC50: < 0.3 µM
[2]; [6]
  IC50: 1 to 30 µM

## COc1cccc(CCc2cc(NC(=O)c3ccc(NC(C)=O)cc3)[nH]n2)c1 [Example 19, 4-Acetamido-N-[5-[2-(3-methoxyphenyl)ethyl]-2H-pyrazol-3-yl]benzamide]
FGFR1 active kinase [1]; [5]
  IC50: 0.4 µM
FGFR1 active kinase [1]; [7]
  IC50: 0.3 to 1 µM
[3]; [8]
  IC50: < 0.3 µM

## CN1CCN(c2ccc(C(=O)Nc3cc(CCc4ccccc4)n[nH]3)cc2)CC1 [Example 1, 4-(4-methylpiperazin-1-yl)-N-(5-phenethyl-2H-pyrazol-3-yl)benzamide]
[3]; [8]
  IC50: < 0.3 µM
[3]; [9]
  IC50: 0.22 µM
[2]; [6]
  IC50: 0.3 to 1 µM

## COc1cccc(CCc2cc(NC(=O)c3ccc(N4CCN(C)CC4)cc3)[nH]n2)c1 [Example 11, N-[5-[2-(3-methoxyphenyl)ethyl]-2H-pyrazol-3-yl]-4-(4-methylpiperazin-1-yl)benzamide]
[3]; [8]
  IC50: < 0.3 µM
[3]; [9]
  IC50: 0.0828 µM
[2]; [6]
  IC50: < 0.3 µM

## CN1CCN(c2ccc(C(=O)Nc3cc(CCc4ccoc4)n[nH]3)cc2)CC1 [Example 9, N-[5-[2-(3-furyl)ethyl]-2H-pyrazol-3-yl]-4-(4-methylpiperazin-1-yl)benzamide]
FGFR1 active kinase [1]; [5]
  IC50: 0.137 µM
FGFR1 active kinase [1]; [7]
  IC50: < 0.3 µM
[3]; [8]
  IC50: < 0.3 µM
[2]; [6]
  IC50: 0.3 to 1 µM

## CCNc1ccc(C(=O)Nc2cc(CCc3cccc(OC)c3)n[nH]2)cn1 [Example 18, 6-Ethylamino-N-{5-[2-(3-methoxy-phenyl)-ethyl]-2H-pyrazol-3-yl}-nicotinamide]
FGFR1 active kinase [1]; [5]
  IC50: 0.54 µM
FGFR1 active kinase [1]; [7]
  IC50: 0.3 to 1 µM
[3]; [8]
  IC50: 0.3 to 1 µM
[2]; [6]
  IC50: 0.3 to 1 µM
[2]; NIH3T3, footnote example, read-out: Cell pErk, value in table footnote
  IC50: 0.877 µM

## COc1cc(COc2cc(NC(=O)c3cnc(N4CCN(C)CC4)cn3)[nH]n2)cc(OC)c1 [Example 20, N-[5-[(3,5-Dimethoxyphenyl)methoxy]-2H-pyrazol-3-yl]-5-(4-methylpiperazin-1-yl)pyrazine-2-carboxamide]
FGFR1 active kinase [1]; [5]
  IC50: 0.046 µM
FGFR1 active kinase [1]; [7]
  IC50: < 0.3 µM
[3]; [8]
  IC50: < 0.3 µM

## COc1cccc(CCc2cc(NC(=O)c3ccc(C)nc3)[nH]n2)c1 [Example 13, N-[5-[2-(3-Methoxyphenyl)ethyl]-2H-pyrazol-3-yl]-6-methyl-pyridine-3-carboxamide]
FGFR1 active kinase [1]; [5]
  IC50: 0.95 µM
FGFR1 active kinase [1]; [7]
  IC50: 0.3 to 1 µM
[3]; [8]
  IC50: 0.3 to 1 µM

## COc1cccc(CCc2cc(NC(=O)c3ccc(OC)nc3)[nH]n2)c1 [Example 14, 6-Methoxy-N-[5-[2-(3-methoxyphenyl)ethyl]-2H-pyrazol-3-yl]pyridine-3-carboxamide]
FGFR1 active kinase [1]; [5]
  IC50: 0.61 µM
FGFR1 active kinase [1]; [7]
  IC50: 0.3 to 1 µM
FGFR1 active kinase [1]; footnote example, read-out: FGFR Kinase assay - Caliper, value in table footnote
  IC50: 0.612 µM
[3]; [8]
  IC50: 0.3 to 1 µM
[3]; footnote example, read-out: FGFR Kinase assay - Elisa, value in table footnote
  IC50: 0.732 µM
